Experiments:
TLR7 [1] = experiment: Glutaraldehyde crosslinking assay of ligand-induced TLR7 dimerization; format: biochemical, Monkey (Macaca mulatta)
Experimental: The recombinant TLR7 proteins expressed in Drosophila S2 cells (Thermo Fisher Scientific) using Monkey (Macaca mulatta) TLR7 extracellular domain expression construct with N167Q, N399Q, N488Q and N799Q mutations and cleavable Z-loop and C-terminal protein A tag were prepared and were stored in a buffer containing 10 mM Tris-HCl pH 7.5 and 150 mM NaCl at concentrations of 10–15 mg ml^−1. Briefly, the purification steps included IgG affinity purification, the Z-loop and the protein A tag cleavage, and gel-filtration chromatography. Glycan-trimmed TLR7 proteins, expressed in the presence of 1.5 mg l^−1 kifunensine (Glycosyn) and treated by Endo Hf (New England Biolabs) were used for crystallization. Glycan-untrimmed proteins were used in ITC analysis, crosslinking assay, negative-staining EM and cryo-EM (200 kV microscopes) analyses. Glycan-trimmed TLR7 proteins with partially-uncleaved protein A tag were used for cryo-EM analysis using Tatan Krios (Supplementary Fig. 11).
For glutaraldehyde crosslinking assay (Fig. 2b), proteins were buffer exchanged into a buffer containing 10 mM HEPES-NaOH, pH 8.0, 150 mM NaCl and were concentrated to ~13 mg/ml using Amicon Ultra devices (Merck). Protein concentrations were adjusted to 25 µM using buffers containing 10 mM HEPES-NaOH, pH 7.0, 150 mM NaCl (for neutral condition) or 50 mM citrate-NaOH pH 5.0, 150 mM NaCl (for acidic condition). Cpd-3, Cpd-6 or Cpd-7 were added to final concentrations of 100 or 1000 µM. The reactions were started by adding glutaraldehyde (Wako) to a final concentration of 5 mM (for neutral condition) or 20 mM (for acidic condition), incubated at ambient temperature for 25 min and quenched by adding Tris-HCl pH 7.5 to a final concentration of 100 mM. Crosslinked samples were analyzed by non-reducing SDS-PAGE. Quantitative analysis of the SDS-PAGE gel image was performed with Image-J.

TLR7 [2] = target: T1, TLR7 (Homo sapiens, UniProt Q9NYK1); experiment: Human TLR7 reporter gene agonistic activity assay; format: cell-based; design: host or cells: HEK293 (TLR7/NF-κB/SEAPorter)
T1 sequence (Q9NYK1 27-1049): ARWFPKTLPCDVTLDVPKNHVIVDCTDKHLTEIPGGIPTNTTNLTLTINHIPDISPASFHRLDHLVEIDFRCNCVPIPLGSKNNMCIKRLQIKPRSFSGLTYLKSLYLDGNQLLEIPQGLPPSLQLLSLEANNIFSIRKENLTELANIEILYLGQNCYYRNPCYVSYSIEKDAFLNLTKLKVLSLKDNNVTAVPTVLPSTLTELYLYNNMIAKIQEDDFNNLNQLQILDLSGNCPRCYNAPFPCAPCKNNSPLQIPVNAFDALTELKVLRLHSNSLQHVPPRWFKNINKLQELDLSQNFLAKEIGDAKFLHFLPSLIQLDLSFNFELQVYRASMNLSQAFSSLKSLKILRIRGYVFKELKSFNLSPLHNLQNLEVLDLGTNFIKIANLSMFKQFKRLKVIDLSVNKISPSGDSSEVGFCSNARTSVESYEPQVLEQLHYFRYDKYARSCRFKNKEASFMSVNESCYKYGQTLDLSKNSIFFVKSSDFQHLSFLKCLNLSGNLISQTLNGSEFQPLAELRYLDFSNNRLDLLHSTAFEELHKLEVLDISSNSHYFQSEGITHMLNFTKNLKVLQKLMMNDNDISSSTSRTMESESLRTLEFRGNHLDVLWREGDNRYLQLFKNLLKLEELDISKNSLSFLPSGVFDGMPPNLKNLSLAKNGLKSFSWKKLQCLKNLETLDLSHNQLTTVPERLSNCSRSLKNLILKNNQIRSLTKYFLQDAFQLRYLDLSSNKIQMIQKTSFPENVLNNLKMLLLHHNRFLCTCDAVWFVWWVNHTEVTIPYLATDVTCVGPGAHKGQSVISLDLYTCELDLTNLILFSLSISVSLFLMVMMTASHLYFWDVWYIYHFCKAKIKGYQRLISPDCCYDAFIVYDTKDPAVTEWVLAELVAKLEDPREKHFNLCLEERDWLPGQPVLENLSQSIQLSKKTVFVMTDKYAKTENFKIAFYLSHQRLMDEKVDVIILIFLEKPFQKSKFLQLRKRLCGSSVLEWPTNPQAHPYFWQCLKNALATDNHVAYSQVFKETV
Experimental: Compounds were dissolved in dimethyl sulfoxide. Before stimulation with compound, Human TLR7 reporter cell line (Novus Biological) was seeded in 96-well microtiter plate (AGC techno glass) at 5 × 10^4 cells/well in DMEM (GIBCO) with 10% fetal bovine serum (GIBCO), and 10 ug/ml Blastcidin S HCl (GIBCO) and incubated at 37 °C in 5% CO2. The plates were incubated over-night and then stimulated with various concentrations of compound and R848. The plates were then incubated an additional 20 ± 1 h at 37 °C in 5% CO2 and then the secreted embryonic alkaline phosphatase (SEAP) activity was measured as activation of human TLR7. The SEAP activity was evaluated as follows: pNPP (Invitrogen, USA) was added to the incubated sample (50 μl/well); after 15 min, 4 M sodium hydroxide solution (nacalai tesque, Japan) was added thereto (50 μl/well) to quench the reaction; and the absorbance of each sample was measured at 405 nm with microplate reader SpectraMax M4 (Molecular Devices, USA).

[3] = pH 5.0, ligand + (100 or 1000 µM used)
[4] = pH 5.0, ligand ++ (100 or 1000 µM used)
[5] = pH 7.0, ligand + (100 or 1000 µM used)
[6] = pH 7.0, ligand ++ (100 or 1000 µM used)

**Q.** Which “ligand-induced TLR7 dimerization” value (TLR7 [1]; neutral or acidic pH) does the source give for COCCOc1nc(N)c2[nH]c(=O)n(Cc3cccnc3)c2n1 [Cpd-3] here?
**A.** Its value is “induced almost complete dimerization under both neutral and acidic conditions”.

**Q.** What about the “Band intensity Dimer” value (TLR7 [1]; [3]) of the same compound?
**A.** Its value is 16031.2.

**Q.** What about the “Band intensity Monomer” value (TLR7 [1]; [3]) of the same compound?
**A.** Its value is 5165.8.

**Q.** And the “Band intensity Dimer” value (TLR7 [1]; [4])?
**A.** Its value is 16425.6.

**Q.** What about the “Band intensity Monomer” value (TLR7 [1]; [4]) of the same compound?
**A.** The value was 4634.68.

**Q.** What about the “Band intensity Dimer” value (TLR7 [1]; [5]) of the same compound?
**A.** Its value is 17958.5.

**Q.** And the “Band intensity Monomer” value (TLR7 [1]; [5])?
**A.** The value was 7371.24.

**Q.** And the “Band intensity Dimer” value (TLR7 [1]; [6])?
**A.** Its value is 17537.6.

**Q.** What about the “Band intensity Monomer” value (TLR7 [1]; [6]) of the same compound?
**A.** The value was 7105.24.

**Q.** For CCOCc1nc2c(N)nc3ccccc3c2n1CC(C)(C)O [R848, reference compound], which “activation of human TLR7, reporter signal” value (shortened to “activation of human TLR7”) (TLR7 [2]; compound 0.001 nM (as headed)) is on record?
**A.** Its value is -0.0355.

**Q.** What about the “activation of human TLR7” value (TLR7 [2]; compound 0.003 nM (as headed)) of the same compound?
**A.** The value was -0.0898.

**Q.** And the “activation of human TLR7” value (TLR7 [2]; compound 0.01 nM (as headed))?
**A.** The value was -0.0215.

**Q.** And the “activation of human TLR7” value (TLR7 [2]; compound 0.03 nM (as headed))?
**A.** The value was 0.2447.

**Q.** And the “activation of human TLR7” value (TLR7 [2]; compound 0.1 nM (as headed))?
**A.** Its value is 1.76.

**Q.** And the “activation of human TLR7” value (TLR7 [2]; compound 0.3 nM (as headed))?
**A.** Its value is 3.124.

**Q.** And the “activation of human TLR7” value (TLR7 [2]; compound 1 nM (as headed))?
**A.** The value was 3.25.

**Q.** What about the “activation of human TLR7” value (TLR7 [2]; compound 3 nM (as headed)) of the same compound?
**A.** Its value is 3.172.

**Q.** What about the “activation of human TLR7” value (TLR7 [2]; compound 10 nM (as headed)) of the same compound?
**A.** The value was 3.25.

**Q.** And the “activation of human TLR7” value (TLR7 [2]; compound 30 nM (as headed))?
**A.** Its value is 3.234.

**Q.** And the “activation of human TLR7” value (TLR7 [2]; compound 100 nM (as headed))?
**A.** Its value is 3.25.

Source: publication PMC7562955 (Nature Communications, 2020)
